Test results as given in patent publication US20060094685A1, “Medicinal composition for drug-induced neuropathy” (priority 2002, published 2006).
Counter-ions that a name gives are not always drawn.

Key:
[1] = tested on: Vincristine-induced Sensory Neuropathy Mouse; test: Tail Flick Test using vincristine-induced sensory neuropathy mouse; type: in vivo, mouse (male ICR strain); conditions: CDP-choline·Na 500 mg/kg oral once a day for 10 weeks
Protocol: Experiment: Tail Flick Test Using Vincristine-induced Sensory Neuropathy Mouse (In Vivo) (1) Preparation of Mouse with Vincristine-induced Sensory Neuropathy Vincristine (0.05 mg/kg for the first time, 0.125 mg/kg for the second time and the following) dissolved in injectable physiological saline was intraperitoneally administered to male ICR strain mice (7-week-old, 10 per group) twice a week for 10 weeks to induce sensory neuropathy. (2) Administration of CDP-choline CDP-choline·Na was dissolved in distilled water, and oral administration thereof (500 mg/kg per dose) was started on the same day as vincristine once a day for 10 weeks. (3) Tail Flick Test A photothermic stimulation was given to the tail of mouse, and the reaction latency up to the motion of the tail upon sensing the heat was measured. The measurement results of the reaction latency of a control group, a vincristine administration group and a vincristine administration group with administration of CDP-choline (500 mg/kg) are shown in FIG. 1.

[2] = tested on: Mice With Acrylamide Induced Sensory Neuropathy; test: Tail Flick Test using mice with acrylamide-induced sensory neuropathy; type: in vivo, mouse (male ICR strain); conditions: CDP-choline·Na 100 mg/kg oral once a day for 1 week
Protocol: Experiment: Tail Flick Test Using Mice With Acrylamide Induced Sensory Neuropathy (In Vivo) (1) Preparation of Mouse With Acrylamide-induced Sensory Neuropathy Acrylamide (2.5 mg/mice) dissolved in injectable physiological saline was intraperitoneally administered to male ICR strain mice (7-week-old, 10 per group) 5 times a week for 1 week to induce sensory neuropathy. (2) Administration of CDP-choline CDP-choline·Na was dissolved in distilled water, and oral administration thereof (100 mg/kg per dose) was started on the same day as acrylamide once a day for 1 week. (3) Tail Flick Test A photothermic stimulation was given to the tail of mouse, and the reaction latency up to the motion of the tail upon sensing the heat was measured. The measurement results of the reaction latency of a control group, an acrylamide administration group and an acrylamide administration group with administration of CDP-choline (100 mg/kg) are shown in FIG. 2.

C[N+](C)(C)CCOP(=O)(O)OP(=O)([O-])OC[C@H]1O[C@@H](n2ccc(N)nc2=O)[C@H](O)[C@@H]1O [CDP-choline, cytidine 5′-diphosphocholine-monosodium salt]
suppression of vincristine-induced sensory neuropathy (hyperesthesia-like symptom) ([1]; started on the same day as vincristine i.p. twice a week, 10 mice per group): almost completely suppressed
reaction latency in Tail Flick Test ([1]; vincristine-treated mice, compared to control group, FIG. 1): of the same level as the control group
suppression of acrylamide-induced sensory neuropathy (hyperesthesia-like symptom) ([2]; started on the same day as acrylamide i.p. 5 times a week, 10 mice per group): almost completely suppressed
reaction latency in Tail Flick Test ([2]; acrylamide-treated mice, compared to control group, FIG. 2): of the same level as the control group
